Laboratory results reported in patent US12679843B2, “Pyrrolopyrimidine amines as complement inhibitors” (BioCryst Pharmaceuticals, Inc., priority 2020, dated 2026).
pIC50: −log10 of the molar value.

target: Factor D (Homo sapiens, UniProt P00746); experiment: Factor D esterolytic assay (Z-Lys-SBzl thioester substrate, DTNB, 405 nm); assay type: biochemical; settings: substrate Z-Lys-SBzl 1.29 mM, 100 mM HEPES, 500 mM NaCl, pH 7.5, 10% DMSO, tested a minimum of three times
Method in brief: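 Human Factor D hydrolysis of Z-Lys-SBzl (1.29 mM) monitored at 405 nm via DTNB thiol detection for 600 s, 690 nm background subtracted. Buffer 100 mM HEPES, 500 mM NaCl, pH 7.5, 10% DMSO; substrate added immediately or after room-temperature preincubation. IC50 from percent inhibition of rate, at least three tests.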

Chain of Factor D (P00746 26-253): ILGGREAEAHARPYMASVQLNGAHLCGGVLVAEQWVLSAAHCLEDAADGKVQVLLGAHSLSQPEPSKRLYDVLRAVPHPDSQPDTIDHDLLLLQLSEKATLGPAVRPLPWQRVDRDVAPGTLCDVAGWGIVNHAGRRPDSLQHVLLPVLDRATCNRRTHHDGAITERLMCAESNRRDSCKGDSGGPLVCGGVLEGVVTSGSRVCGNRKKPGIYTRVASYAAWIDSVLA

pIC50	Compound
< 6.00	NC(=O)c1cn(CC(=O)N2C[C@H](F)C[C@H]2C(=O)NCc2cccc(Cl)c2F)c2ncnc(N)c12 [Compound 140a, 4-amino-7-(2-((2S,4R)-2-((3-chloro-2-fluorobenzyl)carbamoyl)-4-fluoropyrrolidin-1-yl)-2-oxoethyl)-7H-pyrrolo[2,3-d]pyrimidine-5-carboxamide]
< 6.00	NCc1cn(CC(=O)N2C[C@H](F)C[C@H]2C(=O)NCc2cccc(Cl)c2F)c2ncnc(N)c12 [Compound 141a, (2S,4R)-1-(2-(4-amino-5-(aminomethyl)-7H-pyrrolo[2,3-d]pyrimidin-7-yl)acetyl)-N-(3-chloro-2-fluorobenzyl)-4-fluoropyrrolidine-2-carboxamide]
6.00 to 7.00	Nc1ncnc2c1c(-c1ccoc1)cn2CC(=O)N1C[C@H](F)C[C@H]1C(=O)NCc1cccc(Cl)c1F [Compound 143d, (2S,4R)-1-(2-(4-amino-5-(furan-3-yl)-7H-pyrrolo[2,3-d]pyrimidin-7-yl)acetyl)-N-(3-chloro-2-fluorobenzyl)-4-fluoropyrrolidine-2-carboxamide]
< 6.00	COC(=O)c1cn(CC(=O)N2C[C@H](F)C[C@H]2C(=O)NCc2cccc(Cl)c2F)c2ncnc(N)c12 [Compound 146a, methyl 4-amino-7-(2-((2S,4R)-2-((3-chloro-2-fluorobenzyl)carbamoyl)-4-fluoropyrrolidin-1-yl)-2-oxoethyl)-7H-pyrrolo[2,3-d]pyrimidine-5-carboxylate]
6.00 to 7.00	Nc1ncnc2c1c(I)cn2CC(=O)N1C[C@H](F)C[C@H]1C(=O)NCc1cccc(Cl)c1F [Compound 148d, (2S,4R)-1-(2-(4-amino-5-iodo-7H-pyrrolo[2,3-d]pyrimidin-7-yl)acetyl)-N-(3-chloro-2-fluorobenzyl)-4-fluoropyrrolidine-2-carboxamide]
6.00 to 7.00	Nc1ncnc2c1c(-c1ccc[nH]1)cn2CC(=O)N1C[C@H](F)C[C@H]1C(=O)NCc1cccc(Cl)c1F [Compound 149b, (2S,4R)-1-(2-(4-amino-5-(1H-pyrrol-2-yl)-7H-pyrrolo[2,3-d]pyrimidin-7-yl)acetyl)-N-(3-chloro-2-fluorobenzyl)-4-fluoropyrrolidine-2-carboxamide]
6.00 to 7.00	Cc1cn(CC(=O)N2C[C@H](F)C[C@H]2C(=O)NCc2cccc(Cl)c2F)c2ncnc(N)c12 [Compound 150d, (2S,4R)-1-(2-(4-amino-5-methyl-7H-pyrrolo[2,3-d]pyrimidin-7-yl)acetyl)-N-(3-chloro-2-fluorobenzyl)-4-fluoropyrrolidine-2-carboxamide]
6.00 to 7.00	Cc1nc2c(N)ncnc2n1CC(=O)N1C[C@H](F)C[C@H]1C(=O)NCc1cccc(Cl)c1F [Compound 152d, (2S,4R)-1-(2-(6-amino-8-methyl-9H-purin-9-yl)acetyl)-N-(3-chloro-2-fluorobenzyl)-4-fluoropyrrolidine-2-carboxamide]
< 6.00	Nc1ncnc2c1c(C(=O)O)cn2CC(=O)N1C[C@H](F)C[C@H]1C(=O)NCc1cccc(Cl)c1F [Compound 153a, 4-amino-7-(2-((2S,4R)-2-((3-chloro-2-fluorobenzyl)carbamoyl)-4-fluoropyrrolidin-1-yl)-2-oxoethyl)-7H-pyrrolo[2,3-d]pyrimidine-5-carboxylic acid]

The remaining lines, values behind:

Compound	pIC50
Nc1ncnc2c(CC(=O)N3C[C@H](F)C[C@H]3C(=O)NCc3cccc(Cl)c3F)cccc12 [Compound 138d, (2S,4R)-1-(2-(4-aminoquinazolin-8-yl)acetyl)-N-(3-chloro-2-fluorobenzyl)-4-fluoropyrrolidine-2-carboxamide]	6.00 to 7.00
Nc1ncnc2c1c(-c1ccc3[nH]ccc3c1)cn2CC(=O)N1C[C@H](F)C[C@H]1C(=O)NCc1cccc(Cl)c1F [Compound 139b, (2S,4R)-1-(2-(4-amino-5-(1H-indol-5-yl)-7H-pyrrolo[2,3-d]pyrimidin-7-yl)acetyl)-N-(3-chloro-2-fluorobenzyl)-4-fluoropyrrolidine-2-carboxamide]	> 7.00
Cc1nc(N)c2cnn(CC(=O)N3C[C@H](F)C[C@H]3C(=O)NCc3cccc(Cl)c3F)c2n1 [Compound 142d, (2S,4R)-1-(2-(4-amino-6-methyl-1H-pyrazolo[3,4-d]pyrimidin-1-yl)acetyl)-N-(3-chloro-2-fluorobenzyl)-4-fluoropyrrolidine-2-carboxamide]	< 6.00
NC(=O)c1cnc2c(ccn2CC(=O)N2C[C@H](F)C[C@H]2C(=O)NCc2cccc(Cl)c2F)c1N [Compound 144g, 4-amino-1-(2-((2S,4R)-2-((3-chloro-2-fluorobenzyl)carbamoyl)-4-fluoropyrrolidin-1-yl)-2-oxoethyl)-1H-pyrrolo[2,3-b]pyridine-5-carboxamide]	6.00 to 7.00
O=C(NCc1cccc(Cl)c1F)[C@@H]1C[C@@H](F)CN1C(=O)Cn1ccc2c3[nH]c(=O)[nH]c(=O)c3cnc21 [Compound 145a, (2S,4R)—N-(3-chloro-2-fluorobenzyl)-1-(2-(2,4dioxo-3,4dihydro-1H-pyrrolo[3′,2′:5,6]pyrido[4,3-d]pyrimidin-7 (2H)-yl)acetyl)-4-fluoropyrrolidine-2-carboxamide]	6.00 to 7.00
COC(=O)c1cnc2c(ccn2CC(=O)N2C[C@H](F)C[C@H]2C(=O)NCc2cccc(Cl)c2F)c1N [Compound 147a, methyl 4-amino-1-(2-((2S,4R)-2-((3-chloro-2-fluorobenzyl)carbamoyl)-4-fluoropyrrolidin-1-yl)-2-oxoethyl)-1H-pyrrolo[2,3-b]pyridine-5-carboxylate]	< 6.00
Nc1c(C(=O)O)cnc2c1ccn2CC(=O)N1C[C@H](F)C[C@H]1C(=O)NCc1cccc(Cl)c1F [Compound 151a, 4-amino-1-(2-((2S,4R)-2-((3-chloro-2-fluorobenzyl)carbamoyl)-4-fluoropyrrolidin-1-yl)-2-oxoethyl)-1H-pyrrolo[2,3-b]pyridine-5-carboxylic acid]	6.00 to 7.00
CSc1cn(CC(=O)N2[C@@H]3C[C@@H]3C[C@H]2C(=O)Nc2cccc(Br)n2)c2ncnc(N)c12 [Compound 154e, (1R,3S,5R)-2-(2-(4-amino-5-(methylthio)-7H-pyrrolo[2,3-d]pyrimidin-7-yl)acetyl)-N-(6-bromopyridin-2-yl)-2-azabicyclo[3.1.0]hexane-3-carboxamide]	6.00 to 7.00
Nc1c(C(=O)O)cnc2c1ccn2CC(=O)N1[C@@H]2C[C@@H]2C[C@H]1C(=O)Nc1cccc(Br)n1 [Compound 155f, 4-amino-1-(2-((1R,3S,5R)-3-((6-bromopyridin-2-yl)carbamoyl)-2-azabicyclo[3.1.0]hexan-2-yl)-2-oxoethyl)-1H-pyrrolo[2,3-b]pyridine-5-carboxylic acid]	< 6.00
Nc1c(C=O)cnc2c1ccn2CC(=O)N1[C@@H]2C[C@@H]2C[C@H]1C(=O)Nc1cccc(Br)n1 [Compound 156e, (1R,3S,5R)-2-(2-(4-amino-5-formyl-1H-pyrrolo[2,3-b]pyridin-1-yl)acetyl)-N-(6-bromopyridin-2-yl)-2-azabicyclo[3.1.0]hexane-3-carboxamide]	6.00 to 7.00
Nc1c(CO)cnc2c1ccn2CC(=O)N1[C@@H]2C[C@@H]2C[C@H]1C(=O)Nc1cccc(Br)n1 [Compound 157a, (1R,3S,5R)-2-(2-(4-amino-5-(hydroxymethyl)-1H-pyrrolo[2,3-b]pyridin-1-yl)acetyl)-N-(6-bromopyridin-2-yl)-2-azabicyclo[3.1.0]hexane-3-carboxamide]	6.00 to 7.00
Cc1cc2c(N)ncnc2n1CC(=O)N1[C@@H]2C[C@@H]2C[C@H]1C(=O)Nc1cccc(Br)n1 [Compound 158e, (1R,3S,5R)-2-(2-(4-amino-6-methyl-7H-pyrrolo[2,3-d]pyrimidin-7-yl)acetyl)-N-(6-bromopyridin-2-yl)-2-azabicyclo[3.1.0]hexane-3-carboxamide]	6.00 to 7.00
COc1ccc2c(c1)c1c(N)ncnc1n2CC(=O)N1[C@H](C(=O)Nc2cccc(Br)n2)C[C@@]2(C)C[C@@H]12 [Compound 159a, (1R,3S,5R)-2-(2-(4-amino-6-methoxy-9H-pyrimido[4,5-b]indol-9-yl)acetyl)-N-(6-bromopyridin-2-yl)-5-methyl-2-azabicyclo[3.1.0]hexane-3-carboxamide]	> 7.00
C[C@@]12C[C@@H](C(=O)Nc3cccc(Br)n3)N(C(=O)Cn3c4ccc(Br)cc4c4c(N)ncnc43)[C@@H]1C2 [Compound 160a, (1R,3S,5R)-2-(2-(4-amino-6-bromo-9H-pyrimido[4,5-b]indol-9-yl)acetyl)-N-(6-bromopyridin-2-yl)-5-methyl-2-azabicyclo[3.1.0]hexane-3-carboxamide]	> 7.00
C[C@@]12C[C@@H](C(=O)Nc3cccc(Br)n3)N(C(=O)Cn3c4ccc(C(=O)O)cc4c4c(N)ncnc43)[C@@H]1C2 [Compound 161a, 4-amino-9-(2-((1R,3S,5R)-3-((6-bromopyridin-2-yl)carbamoyl)-5-methyl-2-azabicyclo[3.1.0]hexan-2-yl)-2-oxoethyl)-9H-pyrimido[4,5-b]indole-6-carboxylic acid]	> 7.00
Nc1ncnc2c1c1cccnc1n2CC(=O)N1[C@@H]2C[C@@H]2C[C@H]1C(=O)Nc1cccc(Br)n1 [Compound 162g, (1R,3S,5R)-2-(2-(4-amino-9H-pyrido[3′,2′:4,5]pyrrolo[2,3-d]pyrimidin-9-yl)acetyl)-N-(6-bromopyridin-2-yl)-2-azabicyclo[3.1.0]hexane-3-carboxamide]	> 7.00
Nc1ncnc2c1c1cnccc1n2CC(=O)N1[C@@H]2C[C@@H]2C[C@H]1C(=O)Nc1cccc(Br)n1 [Compound 163g, (1R,3S,5R)-2-(2-(4-amino-9H-pyrido[3′,4′:4,5]pyrrolo[2,3-d]pyrimidin-9-yl)acetyl)-N-(6-bromopyridin-2-yl)-2-azabicyclo[3.1.0]hexane-3-carboxamide]	> 7.00
C[C@@]12C[C@@H](C(=O)Nc3cccc(Br)n3)N(C(=O)Cn3c4ccc(O)cc4c4c(N)ncnc43)[C@@H]1C2 [Compound 164a, (1R,3S,5R)-2-(2-(4-amino-6-hydroxy-9H-pyrimido[4,5-b]indol-9-yl)acetyl)-N-(6-bromopyridin-2-yl)-5-methyl-2-azabicyclo[3.1.0]hexane-3-carboxamide]	> 7.00
